The source made the active and inactive calls. How the calls were made is not given here.

The experiment deals with C-X-C chemokine receptor type 6 (Homo sapiens) (UniProt O00574). The experiment in a line: CXCR6 receptor antagonists, dose response, cell-based, beta-arrestin, DiscoveRx, APJ panel, uHTS hits (AID 624129). Conditions: CXCR6 beta-arrestin (DiscoveRx) antagonist cell assay; for outcome: CXCR6, dose range 1; for inhibition: CXCR6, run 2, dose range 1, at 79 µM (top of the series).

[1] abbreviates: CXCR6, dose range 1, mean IC50 across replicates.

Chain of C-X-C chemokine receptor type 6 (Homo sapiens) (O00574 whole entry, looked up): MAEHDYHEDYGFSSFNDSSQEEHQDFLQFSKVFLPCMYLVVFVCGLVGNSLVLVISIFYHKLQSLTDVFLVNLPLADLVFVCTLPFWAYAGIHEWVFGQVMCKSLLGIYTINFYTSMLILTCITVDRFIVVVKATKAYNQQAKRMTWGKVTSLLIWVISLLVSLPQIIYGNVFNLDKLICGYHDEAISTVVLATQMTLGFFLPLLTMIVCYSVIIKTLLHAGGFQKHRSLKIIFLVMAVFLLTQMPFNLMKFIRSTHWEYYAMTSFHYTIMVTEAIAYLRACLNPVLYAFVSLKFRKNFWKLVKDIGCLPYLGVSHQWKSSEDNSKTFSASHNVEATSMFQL

Consider `CCc1ccc(NC(=O)c2nc(S(=O)(=O)Cc3ccccc3)ncc2Cl)cc1`, for which the result was inactive and the inhibition (as a rule, the change of the read-out against control, counted positive when it falls) came to 111%. Moreover, the IC50 (usually the point on the concentration scale where inhibition reaches its midpoint) under setting [1] came out at 12.1 µM. This compound showed an IC50 (CXCR6, run 1, dose range 2) of 11 µM. Further, where the note is “CXCR6, run 2, dose range 2”, the IC50 turned out to be 13.1 µM.
The like results for `Cc1cccc(CS(=O)(=O)c2ncc(Cl)c(C(=O)NCc3ccccc3)n2)c1` were, in that order, “inactive”, 112%, 13.1 µM, 11.5 µM and 14.7 µM.
For the compound `CCOc1cc(/C=C2\N=C(SCC)SC2=O)cc([N+](=O)[O-])c1OC(C)=O`, the result was inactive and the inhibition came out at 95.5%. In addition, under setting [1], the IC50 worked out at 39.3 µM. The same compound showed an IC50 (CXCR6, run 1, dose range 2) of 23.8 µM. Besides, where the note is “CXCR6, run 2, dose range 2”, the IC50 is 54.8 µM.
For the compound `COc1cc(C2C(C#N)=C(N)Oc3n[nH]c(-c4cccnc4)c32)cc(Br)c1O` (stereo not given), the outcome was inactive and the inhibition worked out at 86.6%. Also, the IC50 under setting [1] was determined as 28.7 µM. The IC50 (CXCR6, run 1, dose range 2) amounted to 24.6 µM. The compound also yielded a concentration for half-maximal inhibition (IC50) (CXCR6, run 2, dose range 2) of 32.8 µM.
The like results for `CC(O)CN(CC(C)O)c1ccc2c(c1)Cc1cc([N+](=O)[O-])ccc1-2` (stereo not given) were, in that order, “inactive”, 76%, 21.4 µM, 20.1 µM and 22.7 µM.
As for `Cc1cccc(NC(=S)N/N=C/c2ccc([N+](=O)[O-])s2)c1`, the outcome was inactive and the inhibition stood at 87.7%. Under setting [1], this compound gave a half-maximal inhibitory concentration (IC50) of 12.4 µM. Also, under “CXCR6, run 1, dose range 2”, the IC50 was determined as 9.56 µM. For the same compound, for the setting “CXCR6, run 2, dose range 2”, the IC50 came out at 15.2 µM.
On to `CCCCC(=O)NC(=S)Nc1ccccc1C(=O)Nc1ccccc1`, for which the result was inactive and the inhibition is 79.2%. Under setting [1], this compound returned an IC50 of 11.4 µM. The compound also yielded an IC50 (CXCR6, run 1, dose range 2) of 10.5 µM. For the same compound, the IC50 (CXCR6, run 2, dose range 2) was determined as 12.3 µM.
As to `Fc1ccc(NC(=S)NNc2ncc(C(F)(F)F)cc2Cl)c(F)c1`, the result was inactive and the inhibition was determined as 109%. In addition, the IC50 under setting [1] came to 11.6 µM. For the same compound, for the setting “CXCR6, run 1, dose range 2”, the IC50 was found to be 11.2 µM. The compound further displayed an IC50 (CXCR6, run 2, dose range 2) of 12 µM.
Take `FC(F)(F)c1cnc(NNC(=S)Nc2ccccc2)c(Cl)c1`: the result was inactive and the inhibition came out at 112%. The IC50 under setting [1] amounted to 14.9 µM. Further, the half-maximal inhibitory concentration (IC50) (CXCR6, run 1, dose range 2) amounted to 12 µM. Besides, the IC50 (CXCR6, run 2, dose range 2) turned out to be 17.8 µM.
Turning to `COc1cc(/C=C/[N+](=O)[O-])ccc1OC(=O)c1cc2ccccc2oc1=O`, the outcome was inactive and the inhibition amounted to 112%. The IC50 under setting [1] turned out to be 11.6 µM. The compound also displayed an IC50 (CXCR6, run 1, dose range 2) of 12.1 µM. Further, where the note is “CXCR6, run 2, dose range 2”, the IC50 stood at 11.2 µM.
The like results for `CN(C)CCCN(C(=O)CCS(=O)(=O)c1ccccc1)c1nc2cc3c(cc2s1)OCO3` were, in that order, “inactive”, 110%, 14.9 µM, 14.3 µM and 15.5 µM.
Turning to `Cc1ccc(NCC(=O)c2ccc(C)cc2)cc1`, the result was active and the inhibition stood at 58.5%. Under setting [1], this compound displayed an IC50 of 5.44 µM. For the same compound, the IC50 (CXCR6, run 1, dose range 2) came out at 5.44 µM. Moreover, the IC50 (CXCR6, run 2, dose range 2) was more than 79 µM.
As to `CN(CC(=O)Nc1cc(S(=O)(=O)N2CCCC2)ccc1Cl)Cc1cccs1`, the outcome was inactive and the inhibition worked out at 78.8%. In addition, under setting [1], the IC50 was 11.5 µM. This compound registered an IC50 (CXCR6, run 1, dose range 2) of 11.4 µM. This compound came in with a half-inhibitory concentration (IC50) (CXCR6, run 2, dose range 2) of 11.6 µM.
As to `NC(=S)NN=C1c2cc(Cl)ccc2-c2c1cc(Cl)cc2[N+](=O)[O-]`, the outcome was inactive and the inhibition came to 93.3%. Besides, the half-maximal inhibitory concentration (IC50) under setting [1] is 14.1 µM. Moreover, the IC50 (CXCR6, run 1, dose range 2) is 11.7 µM. Moreover, the IC50 (CXCR6, run 2, dose range 2) came to 16.4 µM.
For the compound `COC(=O)c1ccc(NC(=O)c2nc(S(=O)(=O)Cc3cccc(C)c3)ncc2Cl)cc1`, the outcome was inactive and the inhibition is 107%. Moreover, under setting [1], the half-inhibitory concentration (IC50) turned out to be 16.3 µM. The compound also gave an IC50 (CXCR6, run 1, dose range 2) of 15.4 µM. Where the note is “CXCR6, run 2, dose range 2”, this compound displayed an IC50 of 17.2 µM.
Taken in the same sequence, the figures for `Cc1[nH]n2c(=O)cc(-c3ccc([N+](=O)[O-])cc3)nc2c1-c1ccccc1` were “inactive”, 81.6%, 14.6 µM, 13.9 µM and 15.3 µM.
In the case of `Cc1ccc(CS(=O)(=O)c2ncc(Cl)c(C(=O)Nc3ccc(OC(F)F)cc3)n2)cc1`, the result was inactive and the inhibition amounted to 105%. Besides, the IC50 under setting [1] was determined as 12.6 µM. The compound further yielded an IC50 (CXCR6, run 1, dose range 2) of 12.6 µM. Where the note is “CXCR6, run 2, dose range 2”, this compound registered an IC50 of more than 79 µM.
On to `CCOc1ccc(/C=C/[N+](=O)[O-])c2ccccc12`, for which the result was inactive and the inhibition was determined as 109%. The IC50 under setting [1] stood at 17.2 µM. Under “CXCR6, run 1, dose range 2”, this compound gave an IC50 of 17.3 µM. The compound further displayed an IC50 (CXCR6, run 2, dose range 2) of 17.1 µM.
`COC(=O)c1cc(CSc2nc3ccc(C)cc3[nH]2)oc1C`: the result was inactive and the inhibition turned out to be 66.8%. This compound also had an IC50 under setting [1] of 32.9 µM. Where the note is “CXCR6, run 1, dose range 2”, the IC50 was 28.7 µM. The compound further returned a half-maximal inhibitory concentration (IC50) (CXCR6, run 2, dose range 2) of 37.1 µM.
For the compound `O=C(Nc1ccc(F)cc1)c1nc(S(=O)(=O)Cc2ccccc2)ncc1Cl`, the outcome was inactive and the inhibition is 112%. Under setting [1], the IC50 is 12.9 µM. This compound also gave a 50% inhibitory concentration (IC50) (CXCR6, run 1, dose range 2) of 12.5 µM. Under “CXCR6, run 2, dose range 2”, this compound registered an IC50 of 13.4 µM.
The like results for `COc1cc(/C=C/C(O)=C/C(=O)/C=C/c2ccc(O)cc2)ccc1O` were, in that order, “inactive”, 98.4%, 39.4 µM, 40.1 µM and 38.7 µM.
As to `COc1cccc2sc(N(CCCN(C)C)C(=O)CCS(=O)(=O)c3ccccc3)nc12`, the result was inactive and the inhibition stood at 111%. In addition, under setting [1], the IC50 stood at 14.7 µM. Where the note is “CXCR6, run 1, dose range 2”, this compound registered an IC50 of 13.5 µM. For the same compound, the IC50 (CXCR6, run 2, dose range 2) is 15.9 µM.
On to `COc1ccc2nc(-n3c(O)c(C4=c5ccccc5=NC4=O)[nH]c3=S)sc2c1`, for which the outcome was inactive and the inhibition is 109%. Moreover, the IC50 under setting [1] was found to be 30.4 µM. The compound also registered an IC50 (CXCR6, run 1, dose range 2) of 26.5 µM. Also, where the note is “CXCR6, run 2, dose range 2”, the IC50 was 34.3 µM.
For `CC(=NO)C1CCC2C3CCC4=CC(=NO)CCC4(C)C3C(O)CC12C` (stereo not given), the outcome was inactive and the inhibition was determined as 75.2%. Besides, the IC50 under setting [1] worked out at 28.9 µM. Under “CXCR6, run 1, dose range 2”, this compound displayed a 50% inhibitory concentration (IC50) of 12.5 µM. Further, the IC50 (CXCR6, run 2, dose range 2) was determined as 45.4 µM.
Take `C/C(=N\Nc1nc2ccccc2[nH]1)c1ccccn1`: the result was active and the inhibition is -12.1%. This compound also displayed an IC50 under setting [1] of 3.33 µM. The compound further had a half-maximal inhibitory concentration (IC50) (CXCR6, run 1, dose range 2) of 3.33 µM. The compound also gave an IC50 (CXCR6, run 2, dose range 2) of more than 79 µM.
In the case of `O=C(NC(=S)N(CCc1ccccc1)CCc1ccccc1)c1ccco1`, the result was inactive and the inhibition worked out at 68.8%. The half-inhibitory concentration (IC50) under setting [1] came out at 26 µM. Moreover, the IC50 (CXCR6, run 1, dose range 2) was determined as 8.84 µM. Further, the IC50 (CXCR6, run 2, dose range 2) is 43.2 µM.
For the compound `Cn1cnc([N+](=O)[O-])c1S(=O)(=O)Oc1ccccc1`, the result was inactive and the inhibition was found to be 111%. Under setting [1], this compound had an IC50 of 19.4 µM. The IC50 (CXCR6, run 1, dose range 2) turned out to be 16.5 µM. Moreover, the IC50 (CXCR6, run 2, dose range 2) was 22.3 µM.
Turning to `COc1cc(N2C(=O)C=CC2=O)ccc1N1C(=O)C=CC1=O`, the result was inactive and the inhibition stood at 112%. Under setting [1], this compound gave an IC50 of 15.8 µM. Also, the IC50 (CXCR6, run 1, dose range 2) worked out at 12.7 µM. This compound also gave an IC50 (CXCR6, run 2, dose range 2) of 18.9 µM.
The like results for `Cc1ccc(NC(=O)C2=C(c3ccccc3)S(=O)(=O)CCS2(=O)=O)cc1` were, in that order, “inactive”, 108%, 16.9 µM, 16.4 µM and 17.4 µM.
In the case of `CC1=C(CO)C(=O)OC([C@@H](C)C2CC[C@H]3C4C[C@H]5O[C@]56[C@@H](O)C=CC(=O)[C@]6(C)C4CC[C@]23C)C1` (stereo not given in full), the result was inactive and the inhibition came out at 112%. This compound registered an IC50 under setting [1] of 14 µM. Moreover, for the setting “CXCR6, run 1, dose range 2”, the IC50 stood at 12.2 µM. For the setting “CXCR6, run 2, dose range 2”, this compound showed a half-inhibitory concentration (IC50) of 15.8 µM.
Consider `O=C(NCc1cccnc1)/C(=C\c1ccc(-c2cccc(Cl)c2)o1)S(=O)(=O)c1ccccc1`, for which the outcome was inactive and the inhibition is 88.9%. Under setting [1], this compound had a 50% inhibitory concentration (IC50) of 13.8 µM. In addition, the IC50 (CXCR6, run 1, dose range 2) is 11.9 µM. In addition, for the setting “CXCR6, run 2, dose range 2”, the IC50 stood at 15.7 µM.
Take `CN(C)CC1CC/C(=C\c2ccc(O)cc2)C1=O` (stereo not given): the outcome was inactive and the inhibition was found to be 111%. Further, under setting [1], the half-inhibitory concentration (IC50) is 14 µM. The same compound displayed an IC50 (CXCR6, run 1, dose range 2) of 14.3 µM. Besides, for the setting “CXCR6, run 2, dose range 2”, the half-inhibitory concentration (IC50) came to 13.8 µM.
As for `COC(=O)CSc1[nH]c2ccc(Br)cc2c1[N+](=O)[O-]`, the result was inactive and the inhibition was 23.1%. Further, the half-inhibitory concentration (IC50) under setting [1] was 42.2 µM. The same compound had an IC50 (CXCR6, run 1, dose range 2) of 42.2 µM. The compound also showed an IC50 (CXCR6, run 2, dose range 2) of more than 79 µM.
In the case of `COC(=O)c1ccc(CCc2cc(O)c(Br)cc2O)cc1`, the result was inactive and the inhibition stood at 111%. Besides, the IC50 under setting [1] stood at 43.1 µM. Further, the IC50 (CXCR6, run 1, dose range 2) is 19.5 µM. Also, the IC50 (CXCR6, run 2, dose range 2) was found to be 66.8 µM.
In the case of `COC(=O)c1ccc(/C=C(\C#N)C(=O)NC(C)c2ccccc2)cc1` (stereo not given), the result was inactive and the inhibition was 112%. The IC50 under setting [1] turned out to be 14.1 µM. Further, the 50% inhibitory concentration (IC50) (CXCR6, run 1, dose range 2) came to 13.6 µM. The compound also returned an IC50 (CXCR6, run 2, dose range 2) of 14.6 µM.
In the case of `CC1(C)Cc2ccccc2C(NNC(=O)c2ccccn2)=N1`, the outcome was inactive and the inhibition is 108%. For the same compound, the IC50 under setting [1] worked out at 19.1 µM. This compound showed an IC50 (CXCR6, run 1, dose range 2) of 18 µM. For the setting “CXCR6, run 2, dose range 2”, this compound had an IC50 of 20.2 µM.
The like results for `Oc1ccc(Cl)c2cccnc12` were, in that order, “active”, 17.7%, 4.82 µM, 4.82 µM and more than 79 µM.

The record behind these values is PubChem BioAssay AID624129 (Sanford-Burnham Center for Chemical Genomics, 2012).
